Laboratory results taken from patent publication US20150105252A1, “SUBSTITUTED PYRAZOLES AS HERBICIDES” (E I DU PONT DE NEMOURS AND COMPANY, priority 2013, published 2015).

Tests used:
morningglory = test: Test C preemergence; format: in vivo, Ipomoea coccinea; conditions: for Plant response rating (scale of 0 to 100), Morningglory: Preemergence, 250 g ai/ha; for Morningglory plant response rating / Plant response rating, Morningglory: preemergence; for Plant response rating, Morningglory: scale 0 to 100, 0 = no effect, 100 = complete control
Method in brief: (§1)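 Visual control ratings on a 0–100 scale (100 = complete control) made against untreated controls after 13 to 15 days in greenhouse. Compounds applied in surfactant-containing solvent mixture, either preemergence to loam/sand-sown seeds or postemergence to 1- to 4-leaf plants (2–18 cm) in peat medium.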

ryegrass, Italian = test: Test C preemergence; format: in vivo, Lolium multiflorum; conditions: for Plant response rating (scale of 0 to 100), Ryegrass, Italian: Preemergence, 250 g ai/ha; for Ryegrass, Italian plant response rating / Plant response rating, Ryegrass, Italian: preemergence; for Plant response rating, Ryegrass, Italian: scale 0 to 100, 0 = no effect, 100 = complete control
Method in brief: as §1

blackgrass = test: Test C preemergence; format: in vivo, Alopecurus myosuroides; conditions: for Plant response rating (scale of 0 to 100), Blackgrass: Preemergence, 250 g ai/ha; for Blackgrass plant response rating / Plant response rating, Blackgrass: preemergence; for Plant response rating, Blackgrass: scale 0 to 100, 0 = no effect, 100 = complete control
Method in brief: as §1

barnyardgrass [1] = test: Test B flood; format: in vivo, Echinochloa crus-galli; conditions: 250 g ai/ha, visual rating on 0 to 100 scale (0 no effect, 100 complete control), 13 to 15 days
Method in brief: (§2)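 Greenhouse assay lasting 13 to 15 days. Treatment was into water flooding pots 3 cm deep, at the 2-leaf stage, with that level sustained afterwards. Scores compare treated with control plants visually, 100 denoting complete control and 0 no effect; a dash marks no test result.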

pigweed [2] = test: Test A preemergence; format: in vivo, Amaranthus retroflexus; conditions: preemergence
Method in brief: (§3)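 Visual injury rating, 0–100 (0 no effect, 100 complete control), vs untreated controls ~10 days after treatment in greenhouse. Pre: directed soil spray on seeded loam/sand. Post: 2–10 cm plants, 1–2 leaf stage. Formulation: non-phytotoxic solvent mix + surfactant.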

pigweed [3] = test: Test C preemergence; format: in vivo, Amaranthus retroflexus; conditions: for Plant response rating (scale of 0 to 100), Pigweed: Preemergence, 250 g ai/ha; for Pigweed plant response rating / Plant response rating, Pigweed: preemergence; for Plant response rating, Pigweed: scale 0 to 100, 0 = no effect, 100 = complete control
Method in brief: as §1

barnyardgrass [4] = test: Test A postemergence; format: in vivo, Echinochloa crus-galli
Method in brief: as §3

barnyardgrass [5] = test: Test A preemergence; format: in vivo, Echinochloa crus-galli; conditions: preemergence
Method in brief: as §3

crabgrass, large = test: Test C preemergence; format: in vivo, Digitaria sanguinalis; conditions: for Plant response rating (scale of 0 to 100), Crabgrass, Large: Preemergence, 250 g ai/ha; for Crabgrass, Large plant response rating / Plant response rating, Crabgrass, Large: preemergence; for Plant response rating, Crabgrass, Large: scale 0 to 100, 0 = no effect, 100 = complete control
Method in brief: as §1

rice = test: Test B flood; format: in vivo, Oryza sativa; conditions: 250 g ai/ha, visual rating on 0 to 100 scale (0 no effect, 100 complete control), 13 to 15 days
Method in brief: as §2

corn = test: Test A postemergence; format: in vivo, Zea mays
Method in brief: as §3

foxtail, giant = test: Test A postemergence; format: in vivo, Setaria faberii
Method in brief: as §3

velvetleaf = test: Test A postemergence; format: in vivo, Abutilon theophrasti
Method in brief: as §3

johnsongrass = test: Test C preemergence; format: in vivo, Sorghum halepense; conditions: for Plant response rating (scale of 0 to 100), Johnsongrass: Preemergence, 250 g ai/ha; for Johnsongrass plant response rating / Plant response rating, Johnsongrass: preemergence; for Plant response rating, Johnsongrass: scale 0 to 100, 0 = no effect, 100 = complete control
Method in brief: as §1

[6] = 31 g ai/ha, visual rating, scale 0 to 100 (0 no effect, 100 complete control), 13 to 15 days
[7] = 62 g ai/ha, scale 0 to 100 (0 no effect, 100 complete control), 13 to 15 days
[8] = 125 g ai/ha, scale 0 to 100, 0 is no effect, 100 is complete control
[9] = 125 g ai/ha, visual injury, 0 to 100 scale, approx. 10 days
[10] = 500 g ai/ha, visual injury after approx. 10 days, 0 to 100 scale (0 no effect, 100 complete control)
[11] = Postemergence, 500 g ai/ha, visual rating after approx. 10 days, 0 to 100 scale (0 no effect, 100 complete control)
[12] = postemergence, 125 g ai/ha, about 10 days, visual rating on 0 to 100 scale (0 no effect, 100 complete control)
[13] = Postemergence, 500 g ai/ha, 0 to 100 scale (0 no effect, 100 complete control)

SMILES | Plant response rating (scale of 0 to 100), Morningglory (morningglory) | Morningglory plant response rating (morningglory; [6]) | Morningglory plant response rating (morningglory; [7]) | Plant response rating (scale of 0 to 100), Ryegrass, Italian (ryegrass, Italian) | Ryegrass, Italian plant response rating (ryegrass, Italian; [6]) | Ryegrass, Italian plant response rating (ryegrass, Italian; [7]) | Plant response rating (scale of 0 to 100), Blackgrass (blackgrass) | Blackgrass plant response rating (blackgrass; [6]) | Blackgrass plant response rating (blackgrass; [7]) | Plant response rating, Barnyardgrass (barnyardgrass [1]) | Pigweed plant response rating (pigweed [2]; [9]) | Pigweed plant response rating (pigweed [2]; [10]) | Plant response rating (scale of 0 to 100), Pigweed (pigweed [3]) | Pigweed plant response rating (pigweed [3]; [6]) | Pigweed plant response rating (pigweed [3]; [7]) | Barnyardgrass plant response rating (barnyardgrass [4]; [12]) | Barnyardgrass plant response rating (barnyardgrass [5]; [9]) | Barnyardgrass plant response rating (barnyardgrass [5]; [10]) | Plant response rating (scale of 0 to 100), Crabgrass, Large (crabgrass, large) | Crabgrass, Large plant response rating (crabgrass, large; [6]) | also measured
CCCc1cc(C(=O)NCC(F)(F)F)nn1Cc1ccnc(C(F)(F)F)c1 [Compound 105] | 100 | 100 | 100 | 95 | 85 | 95 | 90 | 90 | 90 | 90 | 100 | 100 | 100 | 100 | 100 | 90 | 100 | 100 | 100 | 100 | Morningglory plant response rating (morningglory; [8]): 100; Ryegrass, Italian plant response rating (ryegrass, Italian; [8]): 95; Blackgrass plant response rating (blackgrass; [8]): 90; Pigweed plant response rating (pigweed [3]; [8]): 100; Barnyardgrass plant response rating (barnyardgrass [4]; [11]): 100; Crabgrass, Large plant response rating (crabgrass, large; [7]): 100; Crabgrass, Large plant response rating (crabgrass, large; [8]): 100; Plant response rating, Rice (rice): 90; Corn plant response rating (corn; [11]): 100; Corn plant response rating (corn; [12]): 80; Foxtail, Giant plant response rating (foxtail, giant; [11]): 100; Foxtail, Giant plant response rating (foxtail, giant; [12]): 100; Velvetleaf plant response rating (velvetleaf; [11]): 100; Velvetleaf plant response rating (velvetleaf; [12]): 100; Plant response rating (scale of 0 to 100), Johnsongrass (johnsongrass): 100; Johnsongrass plant response rating (johnsongrass; [6]): 80; Johnsongrass plant response rating (johnsongrass; [7]): 95; Johnsongrass plant response rating (johnsongrass; [8]): 100
CCCc1cc(C(=O)NCC)nn1Cc1cc(C(F)(F)F)nn1C [Compound 129] | 100 | 45 | 98 | 95 | 5 | 90 | 90 | 60 | 80 | 40 | 100 | 100 | 100 | 100 | 100 | 90 | 90 | 100 | 100 | 90 | Plant response rating, Morningglory (morningglory; 125 g ai/ha, 13 to 15 days): 100; Plant response rating, Ryegrass, Italian (ryegrass, Italian; 125 g ai/ha, 13 to 15 days): 95; Plant response rating, Blackgrass (blackgrass; 125 g ai/ha, 13 to 15 days): 90; Plant response rating, Pigweed (pigweed [3]; 125 g ai/ha, 13 to 15 days): 100; Barnyardgrass plant response rating (barnyardgrass [4]; [13]): 90; Crabgrass, Large plant response rating (crabgrass, large; [7]): 100; Plant response rating, Crabgrass, Large (crabgrass, large; 125 g ai/ha, 13 to 15 days): 100; Plant response rating, Rice (rice): 40; Corn plant response rating (corn; [13]): 80; Corn plant response rating (corn; [12]): 50; Foxtail, Giant plant response rating (foxtail, giant; [13]): 90; Foxtail, Giant plant response rating (foxtail, giant; [12]): 80; Velvetleaf plant response rating (velvetleaf; [13]): 100; Velvetleaf plant response rating (velvetleaf; [12]): 90; Plant response rating (scale of 0 to 100), Johnsongrass (johnsongrass): 100; Johnsongrass plant response rating (johnsongrass; [6]): 10; Johnsongrass plant response rating (johnsongrass; [7]): 70; Plant response rating, Johnsongrass (johnsongrass; 125 g ai/ha, 13 to 15 days): 98
CCNC(=O)c1cc(CC)n(Cc2ccnc(OC(F)F)c2)n1 [Compound 130] | 100 | 65 | 98 | 98 | 5 | 25 | 98 | 25 | 98 | 40 | 100 | 100 | 100 | 100 | 100 | 70 | 90 | 100 | 100 | 100 | Plant response rating, Morningglory (morningglory; 125 g ai/ha, 13 to 15 days): 100; Plant response rating, Ryegrass, Italian (ryegrass, Italian; 125 g ai/ha, 13 to 15 days): 65; Plant response rating, Blackgrass (blackgrass; 125 g ai/ha, 13 to 15 days): 98; Plant response rating, Pigweed (pigweed [3]; 125 g ai/ha, 13 to 15 days): 100; Barnyardgrass plant response rating (barnyardgrass [4]; [13]): 90; Crabgrass, Large plant response rating (crabgrass, large; [7]): 100; Plant response rating, Crabgrass, Large (crabgrass, large; 125 g ai/ha, 13 to 15 days): 100; Plant response rating, Rice (rice): 15; Corn plant response rating (corn; [13]): 90; Corn plant response rating (corn; [12]): 70; Foxtail, Giant plant response rating (foxtail, giant; [13]): 90; Foxtail, Giant plant response rating (foxtail, giant; [12]): 60; Velvetleaf plant response rating (velvetleaf; [13]): 100; Velvetleaf plant response rating (velvetleaf; [12]): 80; Plant response rating (scale of 0 to 100), Johnsongrass (johnsongrass): 95; Johnsongrass plant response rating (johnsongrass; [6]): 35; Johnsongrass plant response rating (johnsongrass; [7]): 65; Plant response rating, Johnsongrass (johnsongrass; 125 g ai/ha, 13 to 15 days): 75
